Data set [1] has as its system Escherichia coli. Put plainly: Antibacterial activity against Escherichia coli ATCC 10536 after 24 hr by broth microdilution method. In kind it is functional. The settings on record: ATCC 10536, 24 h.
In data set [2] the test system is Klebsiella pneumoniae. Put plainly: Antibacterial activity against Klebsiella pneumoniae ATCC 10031 after 24 hr by broth microdilution method. In kind it is functional. The settings on record: ATCC 10031, 24 h. On the technique in general: Broth dilution looks for growth in wells or tubes with falling amounts of substance.
Data set [3] relates to Bacillus subtilis. In words: Antibacterial activity against Bacillus subtilis ATCC 60511 after 24 hr by broth microdilution method. In kind it is functional. The settings on record: ATCC 60511, 24 h.
Data set [4] concerns Staphylococcus aureus. In words: Antibacterial activity against Staphylococcus aureus ATCC 11632 after 24 hr by broth microdilution method. In kind it is functional. The settings on record: ATCC 11632, 24 h.
The subject of data set [5] is Enterococcus faecalis. In words: Antibacterial activity against Enterococcus faecalis ATCC 14506 after 24 hr by broth microdilution method. In kind it is functional. The settings on record: ATCC 14506, 24 h.
Data set [6] concerns A549. Put plainly: Cytotoxicity against Homo sapiens (human) A549 cells at […] by MTT assay relative to control. In kind it is cell-based.
Data set [7] concerns Mycobacterium tuberculosis. In words: Antitubercular activity against Mycobacterium tuberculosis H37Rv after 21 days by broth microdilution method. In kind it is functional. The settings on record: 504 h.
The subject of data set [8] is Aspergillus niger. Put plainly: Antifungal activity against Aspergillus niger ATCC 6275 after 24 hr by broth microdilution method. In kind it is functional. The settings on record: ATCC 6275, 24 h.
Data set [9] deals with Candida tropicalis. In words: Antifungal activity against Candida tropicalis ATCC 1369 after 24 hr by broth microdilution method. Format: functional. The settings on record: ATCC 1369, 24 h.
The test system of data set [10] is Saccharomyces cerevisiae. Put plainly: Antifungal activity against Saccharomyces cerevisiae ATCC 9763 after 24 hr by broth microdilution method. In kind it is functional. The settings on record: ATCC 9763, 24 h.
For data set [11], the system named is Pseudomonas aeruginosa. In words: Antibacterial activity against Pseudomonas aeruginosa ATCC 10145 after 24 hr by broth microdilution method. Format: functional. The settings on record: ATCC 10145, 24 h.

Converted amounts (≈) assume the structure as drawn.

The results in this text go back to ChEMBL document CHEMBL3046455, “Synthesis and pharmacological evaluation of some novel 4-isopropyl thiazole-based sulfonyl derivatives as potent antimicrobial and antitubercular agents” (Med Chem Res, 2013).

Regarding `CC(C)c1csc(-c2nnc(S(=O)(=O)Cc3ccc(OC(F)(F)F)cc3)n2-c2ccccc2)n1`, the MIC in data set [1] is 2 µg/mL (≈ 3.93 µM); in [2] it was 4 µg/mL (≈ 7.87 µM); in [3] it was 8 µg/mL (≈ 15.7 µM); in data set [4], 31.2 µg/mL (≈ 61.4 µM); in [5], 8 µg/mL (≈ 15.7 µM); in data set [7], 1 µg/mL (≈ 1.97 µM). The MIC turned out to be 31.2 µg/mL (≈ 61.4 µM) in [8], 16 µg/mL (≈ 31.5 µM) in [9], 16 µg/mL (≈ 31.5 µM) in data set [10] and 8 µg/mL (≈ 15.7 µM) in [11]. In data set [6], this compound displayed an Activity of 50%.

For the compound `CC(C)c1csc(-c2nnc(S(=O)(=O)Cc3ccc(C(F)(F)F)cc3)n2/N=C/c2c(F)cccc2F)n1`, the MIC in data set [1] worked out at 4 µg/mL (≈ 7.2 µM); in data set [2] it was 16 µg/mL (≈ 28.8 µM); in data set [3], 8 µg/mL (≈ 14.4 µM); in [4] it was 8 µg/mL (≈ 14.4 µM); in [5], 16 µg/mL (≈ 28.8 µM); in data set [7], 0.5 µg/mL (≈ 0.9 µM). For the same compound, the MIC in data set [8] worked out at 8 µg/mL (≈ 14.4 µM); in data set [9] it was 4 µg/mL (≈ 7.2 µM); in data set [10], 16 µg/mL (≈ 28.8 µM); in [11] it was 8 µg/mL (≈ 14.4 µM). In addition, the Activity in data set [6] worked out at 50%.

Take `CC(C)c1csc(-c2nnc(S(=O)(=O)Cc3ccccc3C(F)(F)F)o2)n1`: the MIC was 8 µg/mL (≈ 19.2 µM) in data set [1]; 2 µg/mL (≈ 4.79 µM) in data set [2]; 31.2 µg/mL (≈ 74.9 µM) in [3]; 8 µg/mL (≈ 19.2 µM) in data set [4]; 16 µg/mL (≈ 38.3 µM) in [5]; 2 µg/mL (≈ 4.79 µM) in data set [7]. Also, the minimum inhibitory concentration (MIC) stood at 125 µg/mL (≈ 299 µM) in data set [8], 31.2 µg/mL (≈ 74.9 µM) in data set [9], 8 µg/mL (≈ 19.2 µM) in data set [10] and 4 µg/mL (≈ 9.58 µM) in data set [11]. In addition, the Activity in data set [6] amounted to 50%.

On to `CC(C)c1csc(-c2nnc(S(=O)(=O)Cc3ccc(C(F)(F)F)cc3)n2/N=C/c2ccc(Cl)cc2)n1`, for which the MIC came to 8 µg/mL (≈ 14.4 µM) in [1]; 16 µg/mL (≈ 28.9 µM) in data set [2]; 4 µg/mL (≈ 7.22 µM) in [3]; 4 µg/mL (≈ 7.22 µM) in [4]; 8 µg/mL (≈ 14.4 µM) in data set [5]; 4 µg/mL (≈ 7.22 µM) in [7]. Besides, the MIC in data set [8] was 4 µg/mL (≈ 7.22 µM); in data set [9], 8 µg/mL (≈ 14.4 µM); in data set [10] it was 4 µg/mL (≈ 7.22 µM); in data set [11], 4 µg/mL (≈ 7.22 µM). The Activity in data set [6] came to 50%.

As usually defined, the MIC is the lowest concentration that inhibits growth of the organism. Higher therefore signals a less susceptible organism.
